Reference: ChEMBL document CHEMBL5365437, “Cannabinoformins: Designing Biguanide-Embedded, Orally Available, Peripherally Selective Cannabinoid-1 Receptor Antagonists for Metabolic Syndrome Disorders” (J Med Chem, 2023)
Calls of active or inactive are those of the source. No cut-off for these calls is given here.

How the values were obtained:
[1] = biological target: T1, AMP-activated protein kinase (AMPK) alpha-1/beta-1/gamma-1 (Homo sapiens) (UniProt P54619+Q9Y478+Q13131); test: Activation of recombinant AMPK alpha1/beta1/gamma1 (unknown origin) at 10 uM relative to control; type: protein-complex assay; details: filed as activator
T1 sequence (P54619 whole entry): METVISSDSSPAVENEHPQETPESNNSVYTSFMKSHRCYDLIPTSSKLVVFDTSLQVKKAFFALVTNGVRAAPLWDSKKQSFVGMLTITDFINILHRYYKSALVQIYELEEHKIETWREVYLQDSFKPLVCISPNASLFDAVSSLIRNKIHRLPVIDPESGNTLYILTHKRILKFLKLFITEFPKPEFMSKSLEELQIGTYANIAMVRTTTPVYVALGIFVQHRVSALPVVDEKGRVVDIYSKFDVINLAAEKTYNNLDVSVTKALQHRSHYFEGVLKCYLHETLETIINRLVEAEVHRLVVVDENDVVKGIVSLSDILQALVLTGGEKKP
T1 sequence (Q13131 whole entry partner): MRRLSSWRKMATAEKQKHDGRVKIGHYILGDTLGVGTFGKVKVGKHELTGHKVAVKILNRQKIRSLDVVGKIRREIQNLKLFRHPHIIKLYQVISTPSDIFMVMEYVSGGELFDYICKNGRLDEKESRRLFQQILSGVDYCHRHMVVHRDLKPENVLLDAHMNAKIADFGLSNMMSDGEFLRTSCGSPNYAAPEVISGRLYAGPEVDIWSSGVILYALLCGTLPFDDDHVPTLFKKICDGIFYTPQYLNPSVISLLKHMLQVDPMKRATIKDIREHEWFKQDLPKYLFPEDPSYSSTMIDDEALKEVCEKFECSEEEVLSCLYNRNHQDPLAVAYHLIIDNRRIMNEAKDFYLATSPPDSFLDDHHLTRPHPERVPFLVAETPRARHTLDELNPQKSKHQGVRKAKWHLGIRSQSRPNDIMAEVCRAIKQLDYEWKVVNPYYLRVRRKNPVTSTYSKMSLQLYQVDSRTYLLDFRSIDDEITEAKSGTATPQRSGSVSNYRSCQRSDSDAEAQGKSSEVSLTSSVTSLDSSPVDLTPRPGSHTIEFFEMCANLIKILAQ
T1 sequence (Q9Y478 2-270 partner limits assumed): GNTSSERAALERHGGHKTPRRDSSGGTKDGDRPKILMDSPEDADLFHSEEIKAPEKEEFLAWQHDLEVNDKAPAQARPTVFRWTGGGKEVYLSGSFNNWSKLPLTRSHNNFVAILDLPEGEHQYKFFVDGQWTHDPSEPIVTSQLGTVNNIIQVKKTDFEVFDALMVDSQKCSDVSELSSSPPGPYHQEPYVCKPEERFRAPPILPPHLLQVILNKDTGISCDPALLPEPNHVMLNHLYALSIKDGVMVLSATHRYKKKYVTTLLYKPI

[2] = biological target: T2, Cannabinoid receptor 1 (Mus musculus, UniProt P47746); test: Displacement of [3H][…] from CB1 receptor in mouse brain plasma membrane by radioligand displacement analysis; type: cell membranes
T2 sequence (P47746 whole entry): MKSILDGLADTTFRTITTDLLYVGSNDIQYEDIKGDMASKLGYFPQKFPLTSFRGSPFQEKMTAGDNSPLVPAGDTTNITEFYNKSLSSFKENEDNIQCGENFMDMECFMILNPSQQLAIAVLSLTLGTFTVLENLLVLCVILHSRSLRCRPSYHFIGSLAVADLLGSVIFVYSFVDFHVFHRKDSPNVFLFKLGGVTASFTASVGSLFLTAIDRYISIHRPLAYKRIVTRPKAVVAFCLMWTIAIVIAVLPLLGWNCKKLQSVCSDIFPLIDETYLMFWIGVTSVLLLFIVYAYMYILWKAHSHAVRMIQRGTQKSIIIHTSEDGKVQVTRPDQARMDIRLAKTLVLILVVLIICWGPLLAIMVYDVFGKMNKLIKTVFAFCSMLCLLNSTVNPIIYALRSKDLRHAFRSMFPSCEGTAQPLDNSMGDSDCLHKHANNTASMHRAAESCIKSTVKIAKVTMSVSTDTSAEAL

[3] = biological target: T2, Cannabinoid receptor 1; test: Antagonist activity at CB1 receptor in mouse brain membrane assessed as inhibition of […]-induced GTPgammaS binding by [35S]GTPgammaS binding analysis; type: functional, cell membranes
[4] = biological target: Cannabinoid receptor 2 (Homo sapiens, UniProt P34972); test: Displacement of [3H][…] from CB2 receptor (unknown origin) expressed in CHO-K1 cells by radioligand displacement analysis; type: cell-based
Sequence of Cannabinoid receptor 2 (P34972 whole entry): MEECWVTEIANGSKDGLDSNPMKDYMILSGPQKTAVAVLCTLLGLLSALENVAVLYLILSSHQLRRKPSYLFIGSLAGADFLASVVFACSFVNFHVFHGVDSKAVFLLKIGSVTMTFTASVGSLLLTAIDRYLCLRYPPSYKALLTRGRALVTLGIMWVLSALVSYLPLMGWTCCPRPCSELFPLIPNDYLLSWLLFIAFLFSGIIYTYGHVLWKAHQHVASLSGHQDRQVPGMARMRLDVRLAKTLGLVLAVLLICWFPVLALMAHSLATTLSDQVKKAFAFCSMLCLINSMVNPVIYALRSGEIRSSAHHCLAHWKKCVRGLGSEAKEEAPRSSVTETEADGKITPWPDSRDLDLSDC

[5] = biological target: T1, AMP-activated protein kinase (AMPK) alpha-1/beta-1/gamma-1 (Homo sapiens); test: Activation of recombinant AMPK alpha1/beta1/gamma1 (unknown origin) at 1 uM relative to control; type: protein-complex assay; details: filed as activator
[6] = Drug uptake in C57BL/6J mouse plasma at 10 mg/kg, po measured after 1 hr by LC-MS/MS analysis; type: ADME, organism-based
[7] = Drug uptake in C57BL/6J mouse brain at 10 mg/kg, po measured after 1 hr by LC-MS/MS analysis; type: ADME, organism-based; details: read-out: Drug uptake
[8] = Drug uptake in C57BL/6J mouse liver at 10 mg/kg, po measured after 1 hr by LC-MS/MS analysis; type: ADME, organism-based; details: read-out: Drug uptake
[9] = Half life in human; type: ADME
[10] = Half life in mouse; type: ADME, organism-based; details: in vivo
[11] = Cmax in C57BL/6J mouse serum at 10 mg/kg, po by LC-MS/MS analysis; type: ADME, organism-based; parameters: dose 10 mg/kg, route po
[12] = Tmax in C57BL/6J mouse serum at 10 mg/kg, po by LC-MS/MS analysis; type: ADME, organism-based
[13] = Half life in C57BL/6J mouse serum at 10 mg/kg, po by LC-MS/MS analysis; type: ADME, organism-based
[14] = test system: Mus musculus; test: In vivo activation of AMPK in C57BL/6J mouse assessed as increase in AMPK phosphorylation at Thr172 residue in liver at 10 mg/kg, po measured after 2 to 4 hrs by western blot analysis; type: functional, organism-based; details: time 2-4 hrs
[15] = Bound fraction in mouse plasma
[16] = test system: Mus musculus; test: In vivo antagonist activity at CB1 receptor in C57BL/6J mouse assessed as inhibition of ACEA-induced reduction of upper GI motility at 10 mg/kg, po administered with CB1 agonist, ACEA and 30 mins later treated with compound and measured after 30 mins; type: functional, organism-based
[17] = Toxicity in C57BL/6J mouse assessed as induction of anxiety by measuring reduction in time spent in open arms at 3 mg/kg, po measured after 1 hr by elevated plus maze test; type: organism-based; details: in vivo
[18] = Toxicity in C57BL/6J mouse assessed as induction of anxiety by measuring increase in time spent in closed arms at 3 mg/kg, po measured after 1 hr by elevated plus maze test; type: organism-based; details: in vivo
[19] = Toxicity in C57BL/6J mouse assessed as induction of anxiety by measuring reduction in time spent in open arms at 3 mg/kg, po measured after 28 days by elevated plus maze test; type: organism-based; details: in vivo, 672 h, time 28 day
[20] = Toxicity in C57BL/6J mouse assessed as induction of anxiety by measuring increase in time spent in closed arms at 3 mg/kg, po measured after 28 days by elevated plus maze test; type: organism-based; details: in vivo, 672 h, time 28 day

Row | Compound | Activity [1] [%] | Ki [2] [nM] | IC50 [3] [nM] | Activity [5] [%] | further results
1 | C=CCN(CC=C)/C(N)=N/C(=N/S(=O)(=O)c1ccc(Cl)cc1)N1CC(c2ccccc2)C(c2ccc(Cl)cc2)=N1 (stereo unspecified) | 157 |  |  |  | 
2 | CC(=O)N/C(N)=N/C(=N/S(=O)(=O)N1CCC(C(F)(F)F)CC1)N1C[C@H](c2ccccc2)C(c2ccc(Cl)cc2)=N1 | 130 | 0.5 | 2.4 |  | Ki [4]: 18 nM
3 | COc1ccc(S(=O)(=O)/N=C(/N=C(\N)NC(C)=O)N2CC(c3ccccc3)C(c3ccc(Cl)cc3)=N2)cc1 (stereo unspecified) |  | 13 | 16 | 98 | 
4 | CC(=O)N/C(N)=N/C(=N/S(=O)(=O)c1ccc2ccccc2c1)N1CC(c2ccccc2)C(c2ccc(Cl)cc2)=N1 (stereo unspecified) |  | 16 | 6.1 | 117 | 
5 | COCCN/C(N)=N/C(=N/S(=O)(=O)c1ccc(Cl)cc1)N1CC(c2ccccc2)C(c2ccc(Cl)cc2)=N1 (stereo unspecified) | 156 |  |  |  | 
6 | CN1CCN(/C(N)=N/C(=N/S(=O)(=O)c2ccc(Cl)cc2)N2CC(c3ccccc3)C(c3ccc(Cl)cc3)=N2)CC1 (stereo unspecified) | 182 |  |  |  | 
7 | CC(=O)N/C(N)=N/C(=N/S(=O)(=O)c1ccc(C#N)cc1)N1CC(c2ccccc2)C(c2ccc(Cl)cc2)=N1 (stereo unspecified) |  | 0.4 | 5.8 | 91 | 
8 | CC(=O)N/C(N)=N/C(=N/S(=O)(=O)c1ccc(F)cc1)N1CC(c2ccccc2)C(c2ccc(Cl)cc2)=N1 (stereo unspecified) |  | 2.3 | 10 | 95 | 
9 | CC(=O)N/C(N)=N/C(=N/S(=O)(=O)c1ccccc1)N1CC(c2ccccc2)C(c2ccc(Cl)cc2)=N1 (stereo unspecified) |  | 6.8 | 21 | 93 | 
10 | CC(=O)N/C(N)=N/C(=N/S(=O)(=O)N1CCC(C(F)(F)F)CC1)N1CC(c2ccccc2)C(c2ccc(Cl)cc2)=N1 (stereo unspecified) |  | 0.8 | 2.5 | 116 | concentration at 1 h [6]: 28 ng/mL; concentration at 1 h [7]: 0.21 ng/g
11 | CON(C)/C(N)=N/C(=N/S(=O)(=O)c1ccc(Cl)cc1)N1CC(c2ccccc2)C(c2ccc(Cl)cc2)=N1 (stereo unspecified) | 137 |  | 21 | 137 | concentration at 1 h [6]: 728 ng/mL; concentration at 1 h [7]: 69 ng/g; concentration at 1 h [8]: 4970 ng/g
12 | CN/C(=N\S(=O)(=O)c1ccc(Cl)cc1)N1C[C@H](c2ccccc2)C(c2ccc(Cl)cc2)=N1 | 100 |  |  |  | 
13 | CC(=O)N/C(N)=N/C(=N/S(=O)(=O)c1ccc(C)cc1)N1CC(c2ccccc2)C(c2ccc(Cl)cc2)=N1 (stereo unspecified) |  | 8.6 | 19 | 96 | 
14 | CC(=O)N/C(N)=N/C(=N/S(=O)(=O)c1ccc(OC(F)(F)F)cc1)N1C[C@H](c2ccccc2)C(c2ccc(Cl)cc2)=N1 | 120 | 1 | 2.1 |  | Ki [4]: 228 nM
15 | CN/C(N)=N/C(=N/S(=O)(=O)c1ccc(Cl)cc1)N1CC(c2ccccc2)C(c2ccc(Cl)cc2)=N1 (stereo unspecified) | 139 |  |  |  | 
16 | N/C(=N\C(=N\S(=O)(=O)c1ccc(Cl)cc1)N1CC(c2ccccc2)C(c2ccc(Cl)cc2)=N1)N1CCOCC1 (stereo unspecified) | 127 |  |  |  | 
17 | CN(Cc1ccccc1)/C(N)=N/C(=N/S(=O)(=O)c1ccc(Cl)cc1)N1CC(c2ccccc2)C(c2ccc(Cl)cc2)=N1 (stereo unspecified) | 153 |  |  |  | 
18 | CC(=O)N/C(N)=N/C(=N/S(=O)(=O)N1CCCCC1)N1CC(c2ccccc2)C(c2ccc(Cl)cc2)=N1 (stereo unspecified) |  | 1.6 | 7 | 152 | concentration at 1 h [6]: 44 ng/mL; concentration at 1 h [7]: 1.9 ng/g
19 | CC(=O)N/C(N)=N/C(=N/S(=O)(=O)c1ccc(I)cc1)N1C[C@H](c2ccccc2)C(c2ccc(Cl)cc2)=N1 | 130 | 0.85 | 3.4 |  | Ki [4]: 120 nM; concentration at 1 h [6]: 4060 ng/mL; concentration at 1 h [7]: 103 ng/g; concentration at 1 h [8]: 26800 ng/g; half-life [9]: 7.6 min; half-life [10]: 8 min; Cmax [11]: 4 µM; Tmax [12]: 60 min; half-life [13]: ~180 min; Activity [14]: Active; fraction bound [15]: 0.998
20 | CC(C)(C)OC(=O)N/C(N)=N/C(=N/S(=O)(=O)c1ccc(Cl)cc1)N1CC(c2ccccc2)C(c2ccc(Cl)cc2)=N1 (stereo unspecified) | 101 |  | 9.4 | 101 | concentration at 1 h [6]: 2260 ng/mL; concentration at 1 h [7]: 104 ng/g; concentration at 1 h [8]: 16600 ng/g
21 | Cc1c(C(=O)NN2CCCCC2)nn(-c2ccc(Cl)cc2Cl)c1-c1ccc(Cl)cc1 [RIMONABANT] | 101 |  |  | 101 | Activity [16]: Active; Activity [17]: Toxic; Activity [18]: Toxic; Activity [19]: Toxic; Activity [20]: Toxic
